Key:
[1] = target: T1, horseradish peroxidase (HRP) tagged delF508-CFTR (Homo sapiens, UniProt P13569, DEL508-508); assay: Measurement of delF508-CFTR-HRP surface expression in CFBE41o- cells; format: cell-based; settings: delF508-CFTR-HRP surface expression, CFBE41o- cells; for EC50: read-out: DelF508-CFTR-HRP EC50; for Emax: read-out: DelF508-CFTR-HRP Amax %;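 on DelF508-CFTR-HRP Amax %: percent efficacy relative to reference corrector lumacaftor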
T1 construct: expressed in transfected cells
How it was run: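 CFBE41o- bronchial epithelial cells stably expressing delF508-CFTR with HRP in the fourth extracellular loop; expression induced 48h with 500 ng/mL doxycycline, then compounds added (top 10 μM, 10-point 3-fold series, ≤0.5% DMSO) for 24h at 37° C. Surface HRP measured by luminescence with cell-impermeant substrate; EC50 from logistic fit of triplicates, plate-normalized to lowest concentration; efficacy also relative to a reference corrector.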

[2] = target: T2, delF508-CFTR (Homo sapiens, UniProt P13569, DEL508-508); assay: Measurement of delF508-CFTR functional activity in primary human bronchial epithelial cells (HBECs) using Multi-Transepithelial Clamp Circuit (MTECC-24) assay; format: cell-based; settings: primary CF HBECs; for MTECC24 CFHBEC- Amax %: test compound added 24h before assay plus potentiator, relative to reference combination (2 μM corrector + 0.5 μM potentiator); for EC50: test compound added 24h before assay, in the presence of potentiator, mean of at least two replicates, read-out: MTECC24 CFHBEC- EC50
T2 construct: functional activity of the CFTR channel (Chloride ion transport) in patient derived primary human bronchial epithelial cells; host or cells: patient-derived primary human bronchial epithelial cells (delF508-CFTR)
How it was run: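 Patient-derived primary delF508-CFTR HBECs, differentiated at air-liquid interface ~2 weeks, treated basolaterally with compound for 24 h, then apical and basolateral compound in HEPES pH 7.4 assay medium. Equivalent short-circuit current (Ieq) recorded on MTECC-24 with sequential amiloride, forskolin, potentiator and INH-172; normalized to 0.1% DMSO, EC50 from curve fit.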

T2 sequence (P13569 with tags, fused parts or gaps DEL508-508): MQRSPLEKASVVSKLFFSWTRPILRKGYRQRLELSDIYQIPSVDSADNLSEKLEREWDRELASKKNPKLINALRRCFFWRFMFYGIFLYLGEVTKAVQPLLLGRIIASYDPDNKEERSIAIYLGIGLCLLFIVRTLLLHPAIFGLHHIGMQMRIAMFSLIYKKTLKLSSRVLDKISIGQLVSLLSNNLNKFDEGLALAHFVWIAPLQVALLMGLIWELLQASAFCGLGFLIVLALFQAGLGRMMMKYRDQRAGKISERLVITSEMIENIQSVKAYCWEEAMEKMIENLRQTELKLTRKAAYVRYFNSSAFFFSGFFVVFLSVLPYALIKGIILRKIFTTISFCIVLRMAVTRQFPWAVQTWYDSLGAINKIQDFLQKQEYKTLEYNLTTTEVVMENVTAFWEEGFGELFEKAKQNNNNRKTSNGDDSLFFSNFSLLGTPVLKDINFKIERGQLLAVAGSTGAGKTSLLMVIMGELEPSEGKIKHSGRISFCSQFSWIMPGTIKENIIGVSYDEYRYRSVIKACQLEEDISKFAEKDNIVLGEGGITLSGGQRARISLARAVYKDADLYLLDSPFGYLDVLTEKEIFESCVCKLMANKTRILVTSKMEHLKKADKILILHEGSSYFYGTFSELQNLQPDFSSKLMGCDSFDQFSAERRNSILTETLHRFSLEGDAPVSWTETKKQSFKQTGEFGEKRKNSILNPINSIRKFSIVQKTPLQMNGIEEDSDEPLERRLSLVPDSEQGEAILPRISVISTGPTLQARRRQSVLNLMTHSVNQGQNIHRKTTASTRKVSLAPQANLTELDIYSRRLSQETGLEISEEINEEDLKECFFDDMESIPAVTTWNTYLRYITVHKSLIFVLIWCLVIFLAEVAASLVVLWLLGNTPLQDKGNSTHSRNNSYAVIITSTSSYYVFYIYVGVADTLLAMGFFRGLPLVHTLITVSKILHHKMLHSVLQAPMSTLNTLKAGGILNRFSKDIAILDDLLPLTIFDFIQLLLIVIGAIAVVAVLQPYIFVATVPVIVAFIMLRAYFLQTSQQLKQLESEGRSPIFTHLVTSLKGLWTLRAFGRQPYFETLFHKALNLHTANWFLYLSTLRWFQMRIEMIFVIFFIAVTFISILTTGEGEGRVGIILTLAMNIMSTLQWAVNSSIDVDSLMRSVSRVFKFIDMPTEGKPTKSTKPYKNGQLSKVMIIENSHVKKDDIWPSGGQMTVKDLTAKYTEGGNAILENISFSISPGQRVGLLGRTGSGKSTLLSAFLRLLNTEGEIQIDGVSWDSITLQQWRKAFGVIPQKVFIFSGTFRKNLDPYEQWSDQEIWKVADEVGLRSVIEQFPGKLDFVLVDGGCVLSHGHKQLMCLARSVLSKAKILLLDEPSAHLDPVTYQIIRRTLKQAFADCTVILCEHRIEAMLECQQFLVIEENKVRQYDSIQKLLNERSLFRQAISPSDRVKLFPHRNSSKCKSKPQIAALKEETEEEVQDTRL
T1 sequence (P13569 with tags, fused parts or gaps DEL508-508): as above

SMILES | EC50 [1] | MTECC24 CFHBEC- Amax % [2] | EC50 [2] | Emax [1]
Cc1ccc(F)cc1-c1nc(NS(=O)(=O)c2cccc(N[C@@H]3COCC[C@H]3O)n2)ccc1Cl [Example 278, N-[5-chloro-6-(5-fluoro-2-methylphenyl)pyridin-2-yl]-6-{[(3R,4R)-4-hydroxyoxan-3-yl]amino}pyridine-2-sulfonamide] | 1100 nM | 73.4% | 5.4 nM | 
Cc1ccccc1-c1nc(NS(=O)(=O)c2cccc(N[C@@H]3COCC[C@H]3O)n2)ccc1C(F)(F)F [Example 279, 6-{[(3R,4R)-4-hydroxyoxan-3-yl]amino}-N-[6-(2-methylphenyl)-5-(trifluoromethyl)pyridin-2-yl]pyridine-2-sulfonamide] | 1190 nM | 93.7% | 3.5 nM | 
Cc1ccccc1-c1nc(NS(=O)(=O)c2cccc(N[C@H]3C[C@@H](O)C3)n2)ccc1C(F)(F)F [Example 283, N-[6-(2-methylphenyl)-5-(trifluoromethyl)pyridin-2-yl]-6-{[(1s,3s)-3-hydroxycyclobutyl]amino}pyridine-2-sulfonamide] | 1590 nM | 84.0% | 0.8 nM | 
Cc1cccc(C)c1-c1nc(NS(=O)(=O)c2cccc(N[C@H]3C[C@H](O)C3)n2)ccc1Cl [Example 287, N-[5-chloro-6-(2,6-dimethylphenyl)pyridin-2-yl]-6-{[(1r,3r)-3-hydroxycyclobutyl]amino}pyridine-2-sulfonamide] | 1410 nM | 74.8% | 7.1 nM | 384%
Cc1cccc(C)c1-c1nc(NS(=O)(=O)c2cccc(O[C@@H]3CO[C@H](CO)C3)n2)ccc1Cl [Example 288, N-[5-chloro-6-(2,6-dimethylphenyl)pyridin-2-yl]-6-{[(3S,5S)-5-(hydroxymethyl)oxolan-3-yl]oxy}pyridine-2-sulfonamide] | 1710 nM | 69.5% | 34.1 nM | 495%
Cc1ccc(F)cc1-c1nc(NS(=O)(=O)c2cccc(O[C@@H]3COC[C@@H]3O)n2)ccc1Cl [Example 289, N-(5-chloro-6-(5-fluoro-2-methylphenyl)pyridin-2-yl)-6-(((3R,4S)-4-hydroxytetrahydrofuran-3-yl)oxy)pyridine-2-sulfonamide] | 2360 nM | 50.5% | 12.1 nM | 450%
Cc1ccc(C#N)cc1-c1nc(NS(=O)(=O)c2cccc(N3CC(C)(O)C3)n2)ccc1C(F)(F)F [Example 299, N-(6-(5-cyano-2-methylphenyl)-5-(trifluoromethyl)pyridin-2-yl)-6-(3-hydroxy-3-methylazetidin-1-yl)pyridine-2-sulfonamide] | 2440 nM | 61.7% | 9.4 nM | 554%
Cc1ccc(F)cc1-c1nc(NS(=O)(=O)c2cccc(N3CCC(C(=O)O)C3)n2)ccc1C(F)(F)F (centres unmarked) [Example 300, 1-(6-(N-(6-(5-fluoro-2-methylphenyl)-5-(trifluoromethyl)pyridin-2-yl)sulfamoyl)pyridin-2-yl) pyrrolidine-3-carboxylic Acid] | 3270 nM | 43.5% | 12.8 nM | 626%
Cc1ccccc1-c1nc(NS(=O)(=O)c2cccc(N3CCNC4(CC4)C3)n2)ccc1C(F)(F)F [Example 302, 6-(4,7-diazaspiro[2.5]octan-7-yl)-N-(6-(o-tolyl)-5-(trifluoromethyl)pyridin-2-yl)pyridine-2-sulfonamide] | 2320 nM | 74.4% | 18.3 nM | 530%
Cc1ccccc1-c1nc(NS(=O)(=O)c2cccc(N3CCC4(CCC[C@H]4N)CC3)n2)ccc1C(F)(F)F [Example 304, (R)-6-(1-amino-8-azaspiro[4.5]decan-8-yl)-N-(6-(o-tolyl)-5-(trifluoromethyl)pyridin-2-yl)pyridine-2-sulfonamide] | 3920 nM | 63.4% | 8.5 nM | 421%
Cc1ccccc1-c1nc(NS(=O)(=O)c2cccc(N3CCC4(CC[C@@H]4N)CC3)n2)ccc1C(F)(F)F [Example 306, (S)-6-(1-amino-7-azaspiro[3.5]nonan-7-yl)-N-(6-(o-tolyl)-5-(trifluoromethyl)pyridin-2-yl)pyridine-2-sulfonamide] | 3050 nM | 88.1% | 31.5 nM | 418%
Cc1c(C#N)cccc1-c1nc(NS(=O)(=O)c2cccc(N3CC(C)(O)C3)n2)ccc1C(F)(F)F [Example 308, N-(6-(3-cyano-2-methylphenyl)-5-(trifluoromethyl)pyridin-2-yl)-6-(3-hydroxy-3-methylazetidin-1-yl)pyridine-2-sulfonamide] | 3750 nM | 60.7% | 207 nM | 233%
Cc1ccc(C#N)cc1-c1nc(NS(=O)(=O)c2cccc(N3CCNCC3)n2)ccc1Cl [Example 312, N-(5-chloro-6-(5-cyano-2-methylphenyl)pyridin-2-yl)-6-(piperazin-1-yl)pyridine-2-sulfonamide] | 3970 nM | 49.8% | 458 nM | 167%

Further compounds by falling EC50 [1], results first:

EC50 [1] | MTECC24 CFHBEC- Amax % [2] | EC50 [2] | Emax [1] | SMILES
3790 nM | 75.6% | 210 nM | 194% | Cc1c(C#N)cccc1-c1nc(NS(=O)(=O)c2cccc(N3CC(C)(O)C3)n2)ccc1Cl [Example 309, N-(5-chloro-6-(3-cyano-2-methylphenyl)pyridin-2-yl)-6-(3-hydroxy-3-methylazetidin-1-yl)pyridine-2-sulfonamide]
3760 nM | 61.5% | 45.8 nM | 259% | Cc1ccccc1-c1nc(NS(=O)(=O)c2cccc(N3CCC4(CCC(CO)[C@H]4N)CC3)n2)ccc1C(F)(F)F (stereo partly drawn) [Example 307, 6-((1R)-1-amino-2-(hydroxymethyl)-8-azaspiro[4.5]decan-8-yl)-N-(6-(o-tolyl)-5-(trifluoromethyl)pyridin-2-yl)pyridine-2-sulfonamide]
3270 nM | 61.7% | 220 nM | 179% | Cc1ccc(C#N)cc1-c1nc(NS(=O)(=O)c2cccc(N3CCNCC3)n2)ccc1C(F)(F)F [Example 311, N-(6-(5-cyano-2-methylphenyl)-5-(trifluoromethyl)pyridin-2-yl)-6-(piperazin-1-yl)pyridine-2-sulfonamide]
3170 nM | 65.5% | 71.7 nM | 491% | Cc1ccccc1-c1nc(NS(=O)(=O)c2cccc(N3CC4(C3)OCCC4N)n2)ccc1C(F)(F)F (centres unmarked) [Example 303, 6-(8-amino-5-oxa-2-azaspiro[3.4]octan-2-yl)-N-(6-(o-tolyl)-5-(trifluoromethyl)pyridin-2-yl)pyridine-2-sulfonamide]
2630 nM | 81.3% | 44.3 nM | 312% | Cc1ccc(C#N)cc1-c1nc(NS(=O)(=O)c2cccc(N3CC(C)(O)C3)n2)ccc1Cl [Example 305, N-(5-chloro-6-(5-cyano-2-methylphenyl)pyridin-2-yl)-6-(3-hydroxy-3-methylazetidin-1-yl)pyridine-2-sulfonamide]
2280 nM | 85.2% | 0.9 nM | 493% | Cc1ccccc1-c1nc(NS(=O)(=O)c2cccc(N[C@H]3C[C@H](O)C3)n2)ccc1C(F)(F)F [Example 284, N-[6-(2-methylphenyl)-5-(trifluoromethyl)pyridin-2-yl]-6-{[(1r,3r)-3-hydroxycyclobutyl]amino}pyridine-2-sulfonamide]
1590 nM | 96.4% | 10 nM |  | Cc1ccccc1-c1nc(NS(=O)(=O)c2cccc(N3CC[C@H](O)[C@H]3C)n2)ccc1C(F)(F)F [Example 314, 6-((2R,3S)-3-hydroxy-2-methylpyrrolidin-1-yl)-N-(6-(o-tolyl)-5-(trifluoromethyl)pyridin-2-yl)pyridine-2-sulfonamide]
1490 nM | 153.1% | 23.9 nM | 847% | Cc1cccc(C)c1-c1nc(NS(=O)(=O)c2cccc(N[C@H]3C[C@@H](O)C3)n2)ccc1Cl [Example 286, N-[5-chloro-6-(2,6-dimethylphenyl)pyridin-2-yl]-6-{[(1s,3s)-3-hydroxycyclobutyl]amino}pyridine-2-sulfonamide]
1240 nM | 74.1% | 18.9 nM |  | Cc1cccc(C)c1-c1nc(NS(=O)(=O)c2cccc(N[C@H]3C[C@@](C)(O)C3)n2)ccc1Cl [Example 285, N-[5-chloro-6-(2,6-dimethylphenyl)pyridin-2-yl]-6-{[(1r,3s)-3-hydroxy-3-methylcyclobutyl]amino}pyridine-2-sulfonamide]
